Measurements reported in patent US7718641B2, “Pyrrolo [3,4-H] isoquinoline compounds and methods for modulating gated ion channels” (Aros Pharma ApS, priority 2005, dated 2010).

Experiments:
[1] = tested on: CFA-induced thermal hyperalgesia; assay: CFA model, thermal hyperalgesia (Hargreaves plantar test); assay type: in vivo, rat
Description: Assessment of thermal hyperalgesia: Baseline and post-treatment withdrawal latencies to a noxious thermal stimulus were measured according to Hargreaves (Hargreaves et al., 1988) using a plantar test analgesia meter (IITC, Woodland Hills, Calif., model # 336). The stimulus intensity was set at 30% of maximum output and the cut-off time was set at 30 seconds. Rats were placed on a glass plate warmed to 28° C. and allowed to habituate to the testing chambers for a minimum of 15 minutes prior to each testing session. The thermal stimulus was applied to the plantar surface of the paw, and the mean latency of three readings on each paw was used as the latency value for each time point. Thermal thresholds were defined as the latency in seconds to the first pain behavior, which includes nocifensive paw withdrawal, flinching, biting and/or licking of the stimulated paw. The mean and standard error of the mean (SEM) were determined for the injured and normal paws for each treatment group.
For comparison, results with morphine (6 mg/kg sc) and indomethacin (30 mg/kg po) are shown. […] Data are expressed as mean±SEM, (n=10). **P<0.01, vs. baseline.

[2] = tested on: CFA-induced inflammatory pain; assay: CFA model of chronic inflammatory pain, hindpaw weight bearing (Incapacitance Tester); assay type: in vivo, rat; conditions: 24 h after CFA, 60 min after drug injection, n=7-8
Description: Rats (body weight 260-300 g) were given a s.c. injection of CFA (50% in saline, 100 μl, Sigma) into the plantar surface of the hindpaw under brief halothane anaesthesia. After 24 h, they were then tested for hindpaw weight bearing responses, as assessed using an Incapacitance Tester (Linton Instrumentation, UK), (Zhu et al., 2005). The instrument incorporates a dual channel scale that separately measures the weight of the animal distributed to each hindpaw. While normal rats distribute their body weight equally between the two hindpaws (50-50), the discrepancy of weight distribution between an injured and non-injured paw is a natural reflection of the discomfort level in the injured paw (nocifensive behavior). The rats were placed in the plastic chamber designed so that each hindpaw rested on a separate transducer pad. […] For each rat, three readings from each paw were taken and then averaged. Side-to-side weight bearing difference was calculated as the average of the absolute value of the difference between two hindpaws from three trials (right paw reading-left paw reading).
Hindpaw weight bearing responses were measured in male Sprague-Dawley rats for 2-3 days prior to being given a hindpaw injection of CFA. Twenty-four hours later baseline responses were measured and rats were then administered Compound A (5, 10 and 20 mg/kg, i.p.), Compound H (10, 30 and 60 mg/kg) and morphine (3, 6 and 10 mg/kg). Weight bearing responses were then measured at 30, 60 and 120 min after drug or vehicle injection (data shown at 60 min.). […] Data are expressed as mean +/−SEM. *P<0.05, **P<0.01, *** P<0.001 vs baseline; +++: P<0.001 vs vehicle. All groups n=7-8.

Row | SMILES | efficacy on CFA-induced thermal hyperalgesia ([1]; 30 mg/kg po) | CFA-induced change in hindpaw weight bearing compared with vehicle [2] | efficacy on CFA-induced thermal hyperalgesia ([1]; 6 mg/kg sc)
1 | COc1ccc2c(c1)c(CC(=O)O)c(C)n2C(=O)c1ccc(Cl)cc1 [indomethacin, reference compound] | fully efficacious | – | –
2 | CN1CC[C@]23c4c5ccc(O)c4O[C@H]2[C@@H](O)C=C[C@H]3[C@H]1C5 [morphine, reference compound] | – | marked dose-dependent attenuation in the CFA-induced change in weight bearing | fully efficacious
